In patent publication US20070154452A1, “Therapeutic agent for pancreas cancer” (ORIENT CANCER THERAPY, priority 2004, published 2007):
Structures can show the parent of a compound that is named as a salt.

Key:
Format in all cases: in vivo, human
[1] = system: IL-12; test: IL-12 production of the patients' peripheral blood monocyte fraction (ELISA); details: pancreas cancer, 8 cases, before and after Gemzar 1000 mg/mm^2 for three weeks then a week break, FIG. 3
Description: Firstly, a monocyte fraction is separated from blood for preparation. After heparinized peripheral blood is diluted twofold with Phosphate Buffer Saline (PBS) and mixed, the mixture is overlaid on Ficoll-Conray solution (specific gravity 1.077), centrifuged at […] for 20 minutes to collect a monocyte fraction. After washing it, RPMI-1640 medium added with 10% fetal bovine serum (FBS) is added and prepared such that the cell number becomes 1×10^6. Into 200 μl of the obtained cell suspension, Phytohemagglutinin (supplied by DIFCO) is added into a concentration of 20 μg/ml, then cultured it in a 96-well microplate in the presence of 5% CO2 at 37° C. for 24 hours to obtain a sample for measuring two kinds of cytokines in the cultured cell solution. To measure the amount of IL-12, a measuring kit based on enzyme immunoassay (ELISA) available from, for example, R&D SYSTEMS and MBL is used, though well known clinical and biochemical examinations can be used. Herein, a measuring kit supplied by R&D SYSTEMS was used. In practice, into each well of a 96-well microplate, 50 μl of measuring diluent of Assay Diluent RD1F, and 200 μl of standard or sample prepared from the preparation method for measuring cytokines described above were dispensed, and then allowed it to stand and react at room temperature for 2 hours. […] The amount of IL-12 is expressed as pg/ml. […]

[2] = system: IFNγ; test: IFNγ production of the patients' peripheral blood monocyte fraction (EIA); design: dose or concentration left out as unconfirmed; details: pancreas cancer, 8 cases, before and after Gemzar for three weeks then a week break, FIG. 3
Description: Firstly, a monocyte fraction is separated from blood for preparation. After heparinized peripheral blood is diluted twofold with Phosphate Buffer Saline (PBS) and mixed, the mixture is overlaid on Ficoll-Conray solution (specific gravity 1.077), centrifuged at […] for 20 minutes to collect a monocyte fraction. After washing it, RPMI-1640 medium added with 10% fetal bovine serum (FBS) is added and prepared such that the cell number becomes 1×10^6. Into 200 μl of the obtained cell suspension, Phytohemagglutinin (supplied by DIFCO) is added into a concentration of 20 μg/ml, then cultured it in a 96-well microplate in the presence of 5% CO2 at 37° C. for 24 hours to obtain a sample for measuring two kinds of cytokines in the cultured cell solution. The measurement of IFNγ was conducted by enzyme immunoassay (EIA method) using […] kit from BioSource Europe S. In practice, into a each well of a 96-well microplate, 50 μl of standard or the twofold dilution of prepared sample described above was dispensed, then 50 μl of anti-IFNγ antibody labeled with HRP was dispensed, and further allowed to react for 2 hours at room temperature with shaking. […] The amount of IFNγ is expressed as IU/ml.

[3] = system: NK cells and NKT cells; test: Ratios of NK, NKT and perforin-producing cells to total lymphocytes (flow cytometry); details: pancreas cancer, 8 cases, before and after Gemzar, FIG. 4
Description: The measurement of NKT cells having NKR-P1 can be conducted by measuring cell surface antigens (CD3 and CD161 ) which are specifically presented on the NKT cell surface. In particular, lymphocytes in peripheral blood are tested for cells of CD3 positive and CD161 positive [CD3 (+) and CD161 (+)]. Thus, CD3 and CD161 which are cell surface antigens on NKT cell are measured by Two Color assay which uses monoclonal antibodies and flow cytometry. Here, activated NKT cells mean that the ratio of NKT [CD3 (+) and CD161 (+)] cells in lymphocytes is 10% or more, and more preferably 16% or more. The ability of activating NKT cell means the function which can increase NKT cell ratio by 10% or more, and more preferably 16% or more, or which can further increase NKT cell ratio more than that before administering a certain substance. Likewise, [CD3 (−) and CD161 (+) ] means to assay for CD3 negative and CD161 positive cells. This method is useful in measurement of NK cells. In addition, CD8 (+) means to assay for CD8 positive cells. This method is useful in measurement of CTL activity. In the Examples, bloods from cancer patients were used, and cells in blood were separated into positive and negative for cell surface antigens, CD3, CD161 and CD8, and each cell ratio was measured by Two Color assay using flow cytometry following a conventional manner. At this time, monoclonal antibodies used against CD3 , CD161 and CD8 were supplied by Coulter or Becton & Dickinson respectively. For lymphocytes in peripheral blood, two of CD3 , CD161 and CD8 of cell surface antigens and perforin are measured by Three Color assay using flow cytometry following a conventional manner. Specifically, into a collected blood, a fixative solution is added to fix cells, then after adding a membrane permeabilizer, an anti-perforin antibody (supplied by Pharmingen) is added for reaction, further secondary antibody labeled with PRE-Cy5 (from DAKO) is added for reaction, then anti-CD3-PE (Coulter 6604627) antibody and anti-CD161-FITC (B-D) antibody are added for reaction, thereafter subjected to measurement by flow cytometry. They were abbreviated as P or PER in figures and tables.

[4] = system: Th1/Th2; test: Th1/Th2 before and after administration of Gemzar; details: pancreas cancer, 8 cases, before and after Gemzar 1000 mg/mm^2 for three weeks then a week break, FIG. 3
Excerpt: Gemcitabine hydrochloride (Gemzar™) is an anticancer agent developed by Eli Lilly and Company. This Gemzar was approved to apply for insurance for pancreas cancer in April in 2001. […] Inhibitory effects were also not observed in the ratios of NK cells (8 cases), perforin-producing NK cells (8 cases), NKT cells (8 cases) and perforin-producing NKT cells (8 cases) to total lymphocytes (FIG. 4).

Nc1ccn([C@@H]2O[C@H](CO)[C@@H](O)C2(F)F)c(=O)n1 [Gemzar, gemcitabine hydrochloride]
not observed: effects inhibiting cytokines: IL-12 [1] | effects inhibiting cytokines: IFNγ [2] | inhibitory effects on ratio of NK cells to total lymphocytes [3] | inhibitory effects on ratio of NKT cells to total lymphocytes [3] | inhibitory effects on ratio of perforin-producing NK cells to total lymphocytes [3] | inhibitory effects on ratio of perforin-producing NKT cells to total lymphocytes [3] | effects inhibiting cytokines: Th1/Th2 [4]
